Test results as given in US10981911B2, “Imidazopyrrolopyridine as inhibitors of the JAK family of kinases” (Janssen Pharmaceutica NV, priority 2016, dated 2021).
pIC50: −log10 of the molar value.

Columns and labels:
Assay type in all cases: biochemical
[1] = target: JAK1-JH1JH2 (Homo sapiens (Human), UniProt P23458); assay: Enzymatic inhibition assay (RapidFire HTMS), JAK1; conditions: 12.5 μM ATP, 200 μM substrate; read-out: JAK1-JH2JH1 IC50
Outline: (§1)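 Quenched with 0.5% TFA plus internal-standard peptide; phosphorylated product quantified by RapidFire C4 SPE–ESI-MS, 11-point 1:3 or 1:4 dilutions in duplicate.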

[2] = target: JAK2-JH1JH2 (Homo sapiens (Human), UniProt O60674); assay: Enzymatic inhibition assay (RapidFire HTMS), JAK2; conditions: 30 μM ATP, 40 μM substrate
Outline: as §1

[3] = target: JAK3-JH1JH2 (Homo sapiens (Human), UniProt P52333); assay: Enzymatic inhibition assay (RapidFire HTMS), JAK3; conditions: 150 μM ATP, 40 μM substrate
Outline: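 JAK3 JH1JH2 reaction incubated 45 min at 25 °C, then quenched with 0.5% TFA containing 0.15 μM internal standard peptide. Phosphopeptide product measured by RapidFire C4 SPE–ESI MS (positive mode); inhibition from product decrease versus uninhibited enzyme, 11-point 1:3 or 1:4 dilutions in duplicate.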

[4] = target: Tyk2-JH1JH2 (Homo sapiens (Human), UniProt P29597, C1142A/C936A); assay: Enzymatic inhibition assay (RapidFire HTMS), Tyk2; conditions: 50 μM ATP, 200 μM substrate
Outline: as §1

Tyk2-JH1JH2, sequence (P29597 580-1182 C936A/C1142A): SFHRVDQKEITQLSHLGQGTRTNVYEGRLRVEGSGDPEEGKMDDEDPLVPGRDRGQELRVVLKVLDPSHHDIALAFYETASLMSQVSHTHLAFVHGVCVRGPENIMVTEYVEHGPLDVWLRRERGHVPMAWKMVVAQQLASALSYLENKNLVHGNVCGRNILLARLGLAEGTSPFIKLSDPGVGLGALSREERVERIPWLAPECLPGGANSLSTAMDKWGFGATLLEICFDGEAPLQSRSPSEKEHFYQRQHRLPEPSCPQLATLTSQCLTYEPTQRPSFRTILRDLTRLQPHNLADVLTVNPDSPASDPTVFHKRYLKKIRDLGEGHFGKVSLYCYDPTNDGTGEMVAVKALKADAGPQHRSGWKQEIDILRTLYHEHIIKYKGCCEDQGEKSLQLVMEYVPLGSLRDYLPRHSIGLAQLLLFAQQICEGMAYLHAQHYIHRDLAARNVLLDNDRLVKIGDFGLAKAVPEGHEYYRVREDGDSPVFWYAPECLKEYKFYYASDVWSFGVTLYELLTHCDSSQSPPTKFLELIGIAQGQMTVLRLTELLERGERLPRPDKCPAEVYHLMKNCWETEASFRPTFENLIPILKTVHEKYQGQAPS
JAK1-JH1JH2, sequence (P23458 574-1154): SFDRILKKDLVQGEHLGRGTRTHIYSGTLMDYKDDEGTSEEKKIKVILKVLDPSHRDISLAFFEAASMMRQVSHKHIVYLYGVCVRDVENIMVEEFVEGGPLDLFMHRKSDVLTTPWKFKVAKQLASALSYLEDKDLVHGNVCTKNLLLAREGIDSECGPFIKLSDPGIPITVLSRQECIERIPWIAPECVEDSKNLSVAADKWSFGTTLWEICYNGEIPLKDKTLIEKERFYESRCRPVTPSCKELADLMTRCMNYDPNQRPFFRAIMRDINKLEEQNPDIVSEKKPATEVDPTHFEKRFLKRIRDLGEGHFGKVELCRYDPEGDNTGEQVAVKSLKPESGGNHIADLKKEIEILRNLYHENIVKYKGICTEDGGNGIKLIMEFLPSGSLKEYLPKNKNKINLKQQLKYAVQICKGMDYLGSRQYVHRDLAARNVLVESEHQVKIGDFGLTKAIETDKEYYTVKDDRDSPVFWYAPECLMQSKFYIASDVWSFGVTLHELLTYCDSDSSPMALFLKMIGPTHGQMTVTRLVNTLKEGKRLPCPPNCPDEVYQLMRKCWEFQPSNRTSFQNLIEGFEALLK
JAK3-JH1JH2, sequence (P52333 512-1124): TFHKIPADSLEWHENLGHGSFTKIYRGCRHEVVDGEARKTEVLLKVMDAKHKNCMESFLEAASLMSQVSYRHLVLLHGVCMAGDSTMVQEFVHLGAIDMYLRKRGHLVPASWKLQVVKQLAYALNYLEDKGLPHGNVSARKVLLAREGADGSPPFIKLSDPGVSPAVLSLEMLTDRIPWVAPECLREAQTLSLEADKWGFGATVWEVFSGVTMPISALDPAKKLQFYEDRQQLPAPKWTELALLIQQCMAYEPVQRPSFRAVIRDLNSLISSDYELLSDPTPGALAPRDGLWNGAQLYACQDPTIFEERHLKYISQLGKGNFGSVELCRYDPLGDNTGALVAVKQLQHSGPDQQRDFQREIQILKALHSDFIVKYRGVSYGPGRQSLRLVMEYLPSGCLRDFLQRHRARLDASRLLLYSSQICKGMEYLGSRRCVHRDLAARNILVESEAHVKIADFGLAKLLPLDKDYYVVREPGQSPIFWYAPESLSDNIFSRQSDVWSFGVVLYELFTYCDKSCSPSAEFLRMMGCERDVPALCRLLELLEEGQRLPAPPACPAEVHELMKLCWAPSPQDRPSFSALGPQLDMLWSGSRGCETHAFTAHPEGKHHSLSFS
JAK2-JH1JH2, sequence (O60674 532-1132): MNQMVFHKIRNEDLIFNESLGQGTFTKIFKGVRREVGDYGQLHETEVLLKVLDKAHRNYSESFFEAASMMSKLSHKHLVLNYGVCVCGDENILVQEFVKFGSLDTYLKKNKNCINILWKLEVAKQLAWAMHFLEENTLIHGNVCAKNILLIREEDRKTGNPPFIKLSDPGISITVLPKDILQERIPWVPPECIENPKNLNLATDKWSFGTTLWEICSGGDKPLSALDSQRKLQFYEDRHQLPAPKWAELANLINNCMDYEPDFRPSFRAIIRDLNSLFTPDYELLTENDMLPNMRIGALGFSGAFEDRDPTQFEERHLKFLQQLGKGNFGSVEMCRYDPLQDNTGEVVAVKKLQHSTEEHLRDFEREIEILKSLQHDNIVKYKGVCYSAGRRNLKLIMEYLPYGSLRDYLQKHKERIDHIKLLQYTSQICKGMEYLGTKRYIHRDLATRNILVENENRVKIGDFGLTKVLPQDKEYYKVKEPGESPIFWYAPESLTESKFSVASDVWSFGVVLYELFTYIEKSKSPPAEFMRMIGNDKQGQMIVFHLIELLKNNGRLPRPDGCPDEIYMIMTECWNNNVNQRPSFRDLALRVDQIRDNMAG

| Structure (SMILES) | pIC50 [1] | pIC50 [2] | pIC50 [3] | pIC50 [4] |
| --- | --- | --- | --- | --- |
| N#CC[C@H]1CC[C@H](n2c(C(=O)NC3COC3)nc3cnc4[nH]ccc4c32)CC1 [Ex. 122, 1-((1r,4r)-4-(Cyanomethyl)cyclohexyl)-N-(oxetan-3-yl)-1,6-dihydroimidazo[4,5-d]pyrrolo[2,3-b]pyridine-2-carboxamide] | 9.15 | 7.68 | 6.36 | 7.67 |
| C#Cc1ccc(C(=O)c2ccc(COCc3nc4cnc5[nH]ccc5c4n3[C@H]3CC[C@H](CC#N)CC3)cc2)cc1 [Ex. 126, 2-((1r,4r)-4-(2-(((4-(4-Ethynylbenzoyl)benzyl)oxy)methyl)imidazo[4,5-d]pyrrolo[2,3-b]pyridin-1(6H)-yl)cyclohexyl)acetonitrile] | 9.15 | 7.71 | 6.50 | 7.85 |
| N#CC[C@H]1CC[C@H](n2c(CC(=O)N3CC[C@@H](O)C3)nc3cnc4[nH]ccc4c32)CC1 [Ex. 127, 2-((1r,4r)-4-(2-(2-((R)-3-Hydroxypyrrolidin-1-yl)-2-oxoethyl)imidazo[4,5-d]pyrrolo[2,3-b]pyridin-1(6H)-yl)cyclohexyl)acetonitrile] | 9.15 | 7.16 | 6.10 | 7.89 |
| CC(C)c1noc(=O)n1Cc1nc2cnc3[nH]ccc3c2n1[C@H]1CC[C@H](CC#N)CC1 [Ex. 129, 2-((1r,4r)-4-(2-((3-Isopropyl-5-oxo-1,2,4-oxadiazol-4(5H)-yl)methyl)imidazo[4,5-d]pyrrolo[2,3-b]pyridin-1(6H)-yl)cyclohexyl)acetonitrile] | 9.10 | 6.82 | 5.57 | 7.97 |
| N#CC[C@H]1CC[C@H](n2c(CC(=O)NC34CCC(CO)(CC3)C4)nc3cnc4[nH]ccc4c32)CC1 [Ex. 131, 2-(1-((1r,4r)-4-(Cyanomethyl)cyclohexyl)-1,6-dihydroimidazo[4,5-d]pyrrolo[2,3-b]pyridin-2-yl)-N-(4-(hydroxymethyl)bicyclo[2.2.1]heptan-1-yl)acetamide] | 9.10 | 8.25 | 7.00 | 7.98 |
| CS(=O)(=O)N1CC(c2nc3cnc4[nH]ccc4c3n2[C@H]2CC[C@H](CC#N)CC2)C1 [Ex. 134, 2-((1r,4r)-4-(2-(1-(Methylsulfonyl)azetidin-3-yl)imidazo[4,5-d]pyrrolo[2,3-b]pyridin-1(6H)-yl)cyclohexyl)acetonitrile] | 9.10 | 6.93 | 5.89 | 7.04 |
| CC(C)COC(=O)NCc1nc2cnc3[nH]ccc3c2n1[C@H]1CC[C@H](CC#N)CC1 [Ex. 137, Isobutyl ((1-((1r,4r)-4-(Cyanomethyl)cyclohexyl)-1,6-dihydroimidazo[4,5-d]pyrrolo[2,3-b]pyridin-2-yl)methyl)carbamate] | 9.05 | 7.60 | 6.55 | 7.85 |
| N#CCCNC(=O)c1nc2cnc3[nH]ccc3c2n1[C@H]1CC[C@H](CC#N)CC1 [Ex. 138, N-(2-Cyanoethyl)-1-((1r,4r)-4-(cyanomethyl)cyclohexyl)-1,6-dihydroimidazo[4,5-d]pyrrolo[2,3-b]pyridine-2-carboxamide] | 9.05 | 7.72 | 6.71 | 7.73 |
| N#CC[C@H]1CC[C@H](n2c(C3NC(C4CC4)=NO3)nc3cnc4[nH]ccc4c32)CC1 (stereo partly drawn) [Ex. 140, 2-((1r,4r)-4-(2-(3-Cyclopropyl-4,5-dihydro-1,2,4-oxadiazol-5-yl)imidazo[4,5-d]pyrrolo[2,3-b]pyridin-1(6H)-yl)cyclohexyl)acetonitrile] | 9.05 | 8.35 | 7.25 | 7.83 |
| CS(C)(=O)=NCc1nc2cnc3[nH]ccc3c2n1[C@H]1CC[C@H](CC#N)CC1 [Ex. 142, 2-((1r,4r)-4-(2-(((Dimethyl(oxo)-λ^6-sulfanylidene)amino)methyl)imidazo[4,5-d]pyrrolo[2,3-b]pyridin-1(6H)-yl)cyclohexyl)acetonitrile] | 9.05 | 8.00 | 6.42 | 8.16 |
| N#CC[C@H]1CC[C@H](n2c(-c3ccc(S(F)(F)(F)(F)F)cc3)nc3cnc4[nH]ccc4c32)CC1 [Ex. 143, 2-((1r,4r)-4-(2-(4-(Pentafluoro-λ^6-sulfanyl)phenyl)imidazo[4,5-d]pyrrolo[2,3-b]pyridin-1(6H)-yl)cyclohexyl)acetonitrile] | 9.05 | 7.41 | 5.90 | 6.93 |
| N#CC[C@H]1CC[C@H](n2c(CNC(=O)c3ccccc3)nc3cnc4[nH]ccc4c32)CC1 [Ex. 148, N-((1-((1r,4r)-4-(Cyanomethyl)cyclohexyl)-1,6-dihydroimidazo[4,5-d]pyrrolo[2,3-b]pyridin-2-yl)methyl)benzamide] | 8.96 | 7.30 | 6.12 | 7.44 |

Continued, values first:

| pIC50 [1] | pIC50 [2] | pIC50 [3] | pIC50 [4] | Structure (SMILES) |
| --- | --- | --- | --- | --- |
| 9.15 | 7.94 | 6.37 | 7.35 | N#CC[C@H]1CC[C@H](n2c(-c3ccc(C(=O)c4ccc(CO)cc4)cc3)nc3cnc4[nH]ccc4c32)CC1 [Ex. 121, 2-((1r,4r)-4-(2-(4-(4-(Hydroxymethyl)benzoyl)phenyl)imidazo[4,5-d]pyrrolo[2,3-b]pyridin-1(6H)-yl)cyclohexyl)acetonitrile] |
| 9.15 | 8.36 | 6.85 | 7.74 | N#CC[C@H]1CC[C@H](n2c(CO/N=C(\N)c3ccccc3)nc3cnc4[nH]ccc4c32)CC1 [Ex. 124, (Z*)—N-((1-((1r,4r)-4-(Cyanomethyl)cyclohexyl)-1,6-dihydroimidazo[4,5-d]pyrrolo[2,3-b]pyridin-2-yl)methoxy)benzimidamide] |
| 9.15 | 7.57 | 6.21 | 7.83 | COCC/C(=N/O)NCc1nc2cnc3[nH]ccc3c2n1[C@H]1CC[C@H](CC#N)CC1 [Ex. 125] |
| 9.15 | 6.96 | 5.96 | 7.19 | CCOC(=O)N1CC(c2nc3cnc4[nH]ccc4c3n2[C@H]2CC[C@H](CC#N)CC2)C1 [Ex. 128, Ethyl 3-(1-((1r,4r)-4-(Cyanomethyl)cyclohexyl)-1,6-dihydroimidazo[4,5-d]pyrrolo[2,3-b]pyridin-2-yl)azetidine-1-carboxylate] |
| 9.10 | 7.80 | 6.89 | 7.71 | C#Cc1ccc(C(=O)c2ccc(OCc3nc4cnc5[nH]ccc5c4n3[C@H]3CC[C@H](CC#N)CC3)cc2)cc1 [Ex. 130, 2-((1r,4r)-4-(2-((4-(4-Ethynylbenzoyl)phenoxy)methyl)imidazo[4,5-d]pyrrolo[2,3-b]pyridin-1(6H)-yl)cyclohexyl)acetonitrile] |
| 9.10 | 7.86 | 7.21 | 7.79 | CC(C)(O)CNC(=O)Cc1nc2cnc3[nH]cc(F)c3c2n1[C@H]1CC[C@H](CC#N)CC1 [Ex. 132, 2-(1-((1r,4r)-4-(Cyanomethyl)cyclohexyl)-8-fluoro-1,6-dihydroimidazo[4,5-d]pyrrolo[2,3-b]pyridin-2-yl)-N-(2-hydroxy-2-methylpropyl)acetamide] |
| 9.10 | 8.03 | 6.81 | 7.70 | CNC(=O)c1nc2cnc3[nH]ccc3c2n1[C@H]1CC[C@H](CC#N)CC1 [Ex. 133, 1-((1r,4r)-4-(Cyanomethyl)cyclohexyl)-N-methyl-1,6-dihydroimidazo[4,5-d]pyrrolo[2,3-b]pyridine-2-carboxamide] |
| 9.05 | 7.17 | 6.13 | 7.27 | N#CC[C@H]1CC[C@H](n2c(CNC(=O)C3CCCCC3)nc3cnc4[nH]ccc4c32)CC1 [Ex. 139, N-((1-((1r,4r)-4-(Cyanomethyl)cyclohexyl)-1,6-dihydroimidazo[4,5-d]pyrrolo[2,3-b]pyridin-2-yl)methyl)cyclohexanecarboxamide] |
| 9.05 | 7.02 | 5.39 | 7.18 | N#CC[C@H]1CC[C@H](n2c(CNS(=O)(=O)C3CCCCC3)nc3cnc4[nH]ccc4c32)CC1 [Ex. 141, N-((1-((1r,4r)-4-(Cyanomethyl)cyclohexyl)-1,6-dihydroimidazo[4,5-d]pyrrolo[2,3-b]pyridin-2-yl)methyl)cyclohexanesulfonamide] |
| 9.00 | 7.37 | 6.42 | 7.79 | N#CC[C@H]1CC[C@H](n2c(CNC(=O)c3cn[nH]c3)nc3cnc4[nH]ccc4c32)CC1 [Ex. 144, N-((1-((1r,4r)-4-(Cyanomethyl)cyclohexyl)-1,6-dihydroimidazo[4,5-d]pyrrolo[2,3-b]pyridin-2-yl)methyl)-1H-pyrazole-4-carboxamide] |
| 8.96 | 7.74 | 6.50 | 7.95 | N#CC[C@H]1CC[C@H](n2c(COC(=O)NCC3CCCCC3)nc3cnc4[nH]ccc4c32)CC1 [Ex. 146, (1-((1r,4r)-4-(Cyanomethyl)cyclohexyl)-1,6-dihydroimidazo[4,5-d]pyrrolo[2,3-b]pyridin-2-yl)methyl (cyclohexylmethyl)carbamate] |
| 8.96 | 6.50 | 5.70 | 7.06 | CC(=O)N1CC(c2nc3cnc4[nH]ccc4c3n2[C@H]2CC[C@H](CC#N)CC2)C1 [Ex. 147, 2-((1r,4r)-4-(2-(1-Acetylazetidin-3-yl)imidazo[4,5-d]pyrrolo[2,3-b]pyridin-1(6H)-yl)cyclohexyl)acetonitrile] |
